Data on six molecules can be found in article PMC8582824, “Targeting DDX3X Helicase Activity with BA103 Shows Promising Therapeutic Effects in Preclinical Glioblastoma Models” (Cancers, 2021).

Data set [1] is described as follows: Parallel artificial membrane permeability assay (PAMPA). The class given is in vitro ADME. The following applies: for Papp at 5 h, 0.5 mM: pH 7.4, read-out: AppP (apparent permeability). The protocol:
(§1) Preliminary in vitro ADME analysis was performed to early evaluate the pharmacokinetic (PK) profile of our compounds (Figure 8). Aqueous solubility was calculated by LC-MS-MS analysis. An aliquot of 1 mg of compound was stirred for 24 h at 27 °C in 1 mL of water. The mixture was filtered, and the quantity of solubilized compound was determined. Passive permeability was determined using parallel artificial membrane permeability assay (PAMPA). Microsomal metabolic stability was determined by LC-UV-MS analysis by incubating compounds with human liver microsomes at 37 °C for 60 min (for details, see the Supporting Information).
Chemicals. All solvents, reagents, were from Sigma-Aldrich Srl (Milan, Italy). Dodecane was purchased from Fluka (Milan, Italy). Pooled Male Donors 20 mg mL-1 HLM were from BD Gentest-Biosciences (San Jose, California). Milli-Q quality water (Millipore, Milford, MA, USA) was used. Hydrophobic filter plates (MultiScreen-IP, Clear Plates, 0.45 μm diameter pore size), 96-well microplates, and 96-well UV-transparent microplates were obtained from Millipore (Bedford, MA, USA). […]
Parallel Artificial Membrane Permeability Assay (PAMPA):
Donor solution (0.5 mM) was prepared by diluting 1 mM dimethylsulfoxide (DMSO) compound stock solution using phosphate buffer (pH 7.4, 0.025 M). Filters were coated with 5 μL of a 1% (w/v) dodecane solution of phosphatidylcholine prepared from CHCl3 solution 10% w/v, for intestinal permeability. Donor solution (150 μL) was added to each well of the filter plate. To each well of the acceptor plate were added 300 μL of solution (50% DMSO in phosphate buffer). All compounds were tested in three different plates on different days. The sandwich was incubated for 5 h at room temperature under gentle shaking. After the incubation time, the plates were separated, and samples were taken from both receiver and donor sides and analyzed using LC with UV detection at 280 nm.
LC analysis were performed with a Varian Prostar HPLC system (Varian Analytical Instruments, USA) equipped with a binary pump with a manual injection valve and model Prostar 325 UV-VIS Detector.
Chromatographic separation were conducted using a Polaris C18-A column (150-4.6 mm, 5 μm particle size) at a flow rate of 0.8 mL min-1 with a mobile phase composed of 60% ACN/40% H2O.
Permeability (Papp) for PAMPA was calculated according to the following equation, obtained from Wohnsland and Faller and Sugano et al. equation with some modification in order to obtain permeability […]
where VA is the volume in the acceptor well, VD is the volume in the donor well (cm3), A is the “effective area” of the membrane (cm2), t is the incubation time (s) and r the ratio between drug concentration in the acceptor and equilibrium concentration of the drug in the total volume (VD+VA). Drug concentration is estimated by using the peak area integration.
Membrane retentions (%) were calculated according to the following equation: […]
where r is the ratio between drug concentration in the acceptor and equilibrium concentration, D, A, and Eq represented drug concentration in the donor, acceptor and equilibrium solution, respectively. […]
15 min. The flow rate was 0.2 mL min-1 and injection volume was 5 μL. The instrument operated in positive mode and parameters were: detector 1850 V, drying gas pressure 25.0 psi, desolvation temperature 300.0 °C, nebulizing gas 40.0 psi, needle 5000 V and shield 600 V. Nitrogen was used as nebulizer gas and drying gas.
Collision induced dissociation was performed using Argon as the collision gas at a pressure of 1.8 mTorr in […]
(§2) Microsomal Stability Assay.
(§3) Each compound in DMSO solution was incubated at 37 °C for 60 min in 125 mM phosphate buffer (pH 7.4), 5 μL of human liver microsomal protein (0.2 mg mL-1), in the presence of a NADPH-generating system at a final […]
reaction was stopped by cooling on ice and adding 1.0 mL of acetonitrile. The reaction mixtures were then centrifuged, and the parent drug and metabolites were subsequently determined by LC-UV-MS. […]

A short description of data set [2]: Human liver microsomal metabolic stability. The class given is in vitro ADME. The following applies: 37 °C, 60 min. The protocol: as §1, with “Information). […]” for “Information).”
as §2, §3
reaction was stopped by cooling on ice and adding 1.0 mL of acetonitrile. The reaction mixtures were then centrifuged, and the parent drug and metabolites were subsequently determined by LC-UV-MS.
Chromatographic analysis was performed with an Agilent 1100 LC/MSD VL system (G1946C) (Agilent Technologies, Palo Alto, CA) constituted by a vacuum solvent degassing unit, a binary high-pressure gradient pump, an 1100 series UV detector, and an 1100 MSD model VL benchtop mass spectrometer.
Chromatographic separation was obtained using a Varian Polaris C18-A column (150-4.6 mm, 5 μm particle size) and gradient elution: eluent A being ACN and eluent B consisting of water. The analysis started with 2% […]
flow rate was 0.8 mL min-1 and injection volume was 20 μL.
The Agilent 1100 series mass spectra detection (MSD) single-quadrupole instrument was equipped with the orthogonal spray API-ES (Agilent Technologies, Palo Alto, CA). Nitrogen was used as nebulizing and drying gas. The pressure of the nebulizing gas, the flow of the drying gas, the capillary voltage, the fragmentor voltage, and the vaporization temperature were set at 40 psi, 9 L/min, 3000 V, 70 V, and 350 °C, respectively.
UV detection was monitored at 280 nm. The LC-ESI-MS determination was performed by operating the MSD in the positive ion mode. Spectra were acquired over the scan range m/z 100-1500 using a step size of 0.1 u.
The percentage of not metabolized compound was calculated by comparison with reference solutions
On the technique in general: Liver microsomes are vesicles of endoplasmic reticulum, rich in cytochrome P450 enzymes.

As to `CC(C)CCc1cn(-c2ccc(NC(=O)Nc3cccc4cnccc34)cn2)nn1` [Compound 10, 1-(6-(4-Isopentyl-1H-1,2,3-triazol-1-yl)pyridin-3-yl)-3-(isoquinolin-5-yl)urea], in data set [1], the “Memb. Ret. % (membrane retention)” value was 11.3% and the Papp at 5 h, 0.5 mM amounted to 1.21 ×10⁻⁶ cm/s. For the same molecule, in data set [2], the “HLM Stability ± SD (Human Liver Microsomal Metabolic Stability)” value (shortened to “HLM Stability ± SD”) stood at 91.31 ± 0.1%.

Turning to `CCCCc1nnc(-c2ccc(NC(=O)Nc3ccccc3C(F)(F)F)cc2)[nH]1` [Compound 4, 1-(4-(5-Butyl-4H-1,2,4-triazol-3-yl)phenyl)-3-(2-(trifluoromethyl)phenyl)urea], in data set [1], the “AppP (apparent permeability)” value was “very low passive permeability”; the “Memb. Ret. % (membrane retention)” value turned out to be 2.3%; the Papp at 5 h, 0.5 mM was less than 0.1 ×10⁻⁶ cm/s. The “HLM Stability ± SD” value in data set [2] was determined as 97.9 ± 0.3%.

On to `CCCCc1nnc(-c2ccc(NC(=O)Nc3ccccc3C(F)(F)F)cc2)o1` [Compound 3, 1-(4-(5-Butyl-1,3,4-oxadiazol-2-yl)phenyl)-3-(2-(trifluoromethyl)phenyl)urea], for which, in data set [1], the “AppP (apparent permeability)” value is given as “good values of passive permeability”; the “Memb. Ret. % (membrane retention)” value turned out to be 10.3%; the Papp at 5 h, 0.5 mM stood at 9.75 ×10⁻⁶ cm/s. In data set [2], the “HLM Stability ± SD” value is reported as 88.9 ± 0.9%.

Turning to `CCCCc1cn(-c2ccc(NC(=O)Nc3ccccc3C)cc2)nn1` [Compound 1, reference compound], in data set [1], the “AppP (apparent permeability)” value turned out to be 2.86 ×10⁻⁶ cm/s and the “Memb. Ret. % (membrane retention)” value was determined as 19.1%. The “HLM Stability ± SD” value in data set [2] amounted to 99.0 ± 0.6%.

With `CCCCc1cn(-c2ccc(NC(=O)Nc3ccccc3C(F)(F)F)cc2)nn1` [BA103, 1-(4-(4-Butyl-1H-1,2,3-triazol-1-yl)phenyl)-3-(2-(trifluoromethyl)phenyl)urea], in data set [1], the “AppP (apparent permeability)” value is “good values of passive permeability”; the “Memb. Ret. % (membrane retention)” value was 23.9%; the Papp at 5 h, 0.5 mM came out at 7.47 ×10⁻⁶ cm/s. Moreover, the “HLM Stability ± SD” value in data set [2] is listed as 97.0 ± 0.5%.

Regarding `CCCCn1nnc(-c2ccc(NC(=O)Nc3ccccc3C(F)(F)F)cc2)n1` [Compound 6, 1-(4-(2-Butyl-2H-tetrazol-5-yl)phenyl)-3-(2-(trifluoromethyl)phenyl)urea], in data set [1], the “AppP (apparent permeability)” value is reported as “good values of passive permeability”; the “Memb. Ret. % (membrane retention)” value turned out to be 21.6%; the Papp at 5 h, 0.5 mM amounted to 10.2 ×10⁻⁶ cm/s. In addition, the “HLM Stability ± SD” value in data set [2] stood at 90.32 ± 0.7%.
